Assay results as given in patent US9512139B2, “Conformationally constrained, fully synthetic macrocyclic compounds” (POLYPHOR AG, priority 2009, dated 2016).
Where two headings read alike, the source gives them in different places.

How the values were obtained:
[1] = Metabolic stability assay, human microsomes; format: in vitro ADME; settings: human, microsomes; for Metabolic Stability T½ [min] hum / Metabolic Stability 60 min hum [% remain.]: both, 10 µM; for Metabolic Stability 60 min hum [% remain.]: 1 h
in vitro [2] = format: in vitro ADME, human; settings: human, plasma, 10 µM; for Plasma Stability 240 min hum [% remain.]: 4 h
in vitro [3] = format: in vitro ADME, mouse; settings: both, CD-1, mouse, plasma, 10 µM; for Plasma Stability 240 min mouse [% remain.]: 4 h
[4] = Metabolic stability assay, rat microsomes (values in parentheses); format: in vitro ADME; settings: value in parentheses
[5] = Pharmacokinetic study after single i.v. and p.o. administration in male SD rats; format: in vivo; settings: rat; for Cmax / Tmax / C0 / half-life / bioavailability: male, SD, plasma; for C0: extrapolated to tzero; for half-life: read-out: T1/2 (terminal) (converted)
Method: 5. Pharmacokinetic Study (PK) Analysis
Pharmacokinetic analyses after single intravenous (i.v.) and two different peroral (p.o.) administrations were performed for the test compounds. 240 grams (±10 gram) male SD rats were catheterized and used in the study. The vehicle, Solutol HS-15/0.9% saline (5:95), was added to give a final concentration of 0.33 mg/ml of the compounds for i.v. application, and 0.5 or 2.0 mg/ml for p.o. applications. The volumes used for applications were 3 ml/kg i.v. and 10 ml/kg p.o. resulting in a final dose of 1 mg/kg for the intravenous dose and 5 or 20 mg/kg for the peroral doses.
Blood samples were withdrawn via the catheter at 1) predose, 5, 15, 30, 60, 120, 240, and 480 minutes for the i.v. application and 2) predose, 15, 30, 60, 120, 240, 480 and 720 minutes for the p.o. applications. Plasma was prepared by centrifugation of heparinized whole blood. Plasma samples (˜120 μl each time point, Li-Heparin, 20 IE/ml) were stored at −80° C. until HPLC-MSMS analysis.
Preparation of the Plasma Calibration Samples:
“Blank” rat plasma from untreated animals was used. Aliquots of plasma of 50 μL each were spiked with Internal Standard (ISTD) and with known amounts test compounds in order to obtain 11 plasma calibration samples in the range 0.25-4000 ng/mL.
Preparation of Plasma Samples:
To 50 μL of sample from treated animals 20 μL of internal standard were added. After mixing with 200 μL of acetonitrile, 2% HCOOH were added and each sample was vortexed for several seconds. Precipitated material was removed by centrifugation for 10 min (13200 rpm), the supernatant removed and dried under a constant flow of N2 (Porvair, MiniVap). To reconstitute the dried samples, 200 μL of [DMSO/acetonitrile/H2O, 4/4/2 (v/v/v)+2% HCOOH] were added and the sample was shaken for at least 5 minutes.
LC-MSMS Analysis of Samples:
Reconstituted samples were analysed by HPLC/MSMS on a reverse phase analytical column (BEH C18, 100×2.1 mm, 1.7 μm, Waters). Mobile phase A: H2O/acetonitrile (95:5, v:v) 0.1% formic acid, mobile phase B: Acetonitrile/H2O (95:5, v:v) 0.1% formic acid. Compounds were eluted from the column by using a gradient from 1% B to 60% B in 2.5 min.).
Pharmacokinetic Evaluation:
PK analysis was performed on mean values (generally n=3) using WinNonLin software (Version 5.3, Pharsight Corporation). The area under the curve AUC was calculated by the linear trapezoidal rule (linear interpolation, uniform weighting). AUC(t-∞) was estimated as Ct/b (b: elimination rate constant). […] the sum of AUC(0-t) and AUC(t-∞). Elimination half-life was calculated by the linear regression on at least three data points during the elimination phase. The time intervals selected for the half-life determinations were evaluated by the correlation coefficient (r^2), which should be at least above 0.85 and ideally above 0.96.
In case of i.v. administration the initial concentration at tzero was determined by extrapolation of the curve through the first two time points. Finally bioavailability after p.o. administration was calculated from the dose normalized AUC(0-∞) ration after p.o. versus i.v. administration.

[6] = Metabolic stability assay, CD-1 mouse microsomes; format: in vitro ADME; settings: both, CD-1, mouse, microsomes, 10 µM; for Metabolic Stability 60 min mouse [% remain.]: 1 h
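Wherever Plasma Stability 240 min mouse [% remain.] is given: sodium citrate stabilized mouse plasma, parent compound quantified by HPLC/MS/MS relative to its peak area at time zero, run in triplicate.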
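Wherever Plasma Stability T½ [min] mouse is given: sodium citrate stabilized mouse plasma, parent compound quantified by HPLC/MS/MS relative to its peak area at time zero, run in triplicate.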

CN1CCC[C@H](N)C(=O)N2C[C@@H](OCc3ccccc3)C[C@H]2COc2cccc(c2)C1=O [Ex. 568, (4S,6S,10S)-10-amino-6-(benzyloxy)-14-methyl-2-oxa-8,14-diazatricyclo[14.3.1.0^4,8]icosa-1(20),16,18-triene-9,15-dione]
Metabolic Stability T½ [min] hum [1]: > 60 min | Metabolic Stability 60 min hum [% remain.] [1]: 53 % remain. | Plasma Stability T½ [min] hum (in vitro [2]): > 240 min | Plasma Stability 240 min hum [% remain.] (in vitro [2]): 97 % remain. | Plasma Stability T½ [min] mouse (in vitro [3]): > 240 min | Plasma Stability 240 min mouse [% remain.] (in vitro [3]): 89 % remain. | Metabolic Stability 60 min (rat) [% remain.] [4]: 57 % remain. | Metabolic Stability T½ [min] (rat) [4]: 60 (60) min | Cmax ([5]; iv, 1 mg/kg): 195 ng/mL | Tmax ([5]; iv, 1 mg/kg): 0.08 h | C0 ([5]; iv, 1 mg/kg): 285 ng/mL | half-life ([5]; iv, 1 mg/kg): 1.67 h | Cmax ([5]; po, 5 mg/kg): 64.3 ng/mL | Tmax ([5]; po, 5 mg/kg): 0.25 h | bioavailability ([5]; po, 5 mg/kg): 17.8% | half-life ([5]; po, 5 mg/kg): 1.92 h | Cmax ([5]; po, 20 mg/kg): 380 ng/mL | Tmax ([5]; po, 20 mg/kg): 0.25 h | bioavailability ([5]; po, 20 mg/kg): 21.6% | half-life ([5]; po, 20 mg/kg): 2.07 h | AUC(t-∞) dose normalized ([5]; iv, 1 mg/kg): 167.93 kg·ng·h/mL/mg | Cmax dose normalized ([5]; iv, 1 mg/kg): 194.67 kg·ng/mL/mg | V (terminal) ([5]; iv, 1 mg/kg): 14.32056 L/kg | AUC(t-∞) dose normalized ([5]; po, 5 mg/kg): 29.83 kg·ng·h/mL/mg | Cmax dose normalized ([5]; po, 5 mg/kg): 12.87 kg·ng/mL/mg | AUC(t-∞) dose normalized ([5]; po, 20 mg/kg): 36.22 kg·ng·h/mL/mg | Cmax dose normalized ([5]; po, 20 mg/kg): 18.98 kg·ng/mL/mg | Metabolic Stability T½ [min] mouse [6]: > 60 min | Metabolic Stability 60 min mouse [% remain.] [6]: 60 % remain.

CN1CCC[C@H](NC(=O)CC(C)(C)C)C(=O)N2C[C@@H](O)C[C@H]2COc2cccc(c2)C1=O [Ex. 571, N-[(4S,6S,10S)-6-hydroxy-14-methyl-9,15-dioxo-2-oxa-8,14-diazatricyclo[14.3.1.0^4,8]icosa-1(20),16,18-trien-10-yl]-3,3-dimethylbutanamide]
Metabolic Stability T½ [min] hum [1]: > 60 min | Metabolic Stability 60 min hum [% remain.] [1]: 90 % remain. | Plasma Stability T½ [min] hum (in vitro [2]): > 240 min | Plasma Stability 240 min hum [% remain.] (in vitro [2]): 86 % remain. | Plasma Stability T½ [min] mouse (in vitro [3]): > 240 min | Plasma Stability 240 min mouse [% remain.] (in vitro [3]): 89 % remain. | Metabolic Stability 60 min (rat) [% remain.] [4]: 88 % remain. | Metabolic Stability T½ [min] (rat) [4]: 60 (60) min | Cmax ([5]; iv, 1 mg/kg): 644 ng/mL | Tmax ([5]; iv, 1 mg/kg): 0.08 h | C0 ([5]; iv, 1 mg/kg): 932 ng/mL | half-life ([5]; iv, 1 mg/kg): 1.7 h | Cmax ([5]; po, 5 mg/kg): 340 ng/mL | Tmax ([5]; po, 5 mg/kg): 0.25 h | bioavailability ([5]; po, 5 mg/kg): 29% | half-life ([5]; po, 5 mg/kg): 2.18 h | Cmax ([5]; po, 20 mg/kg): 1520 ng/mL | Tmax ([5]; po, 20 mg/kg): 0.25 h | bioavailability ([5]; po, 20 mg/kg): 27.2% | half-life ([5]; po, 20 mg/kg): 2.3 h | AUC(t-∞) dose normalized ([5]; iv, 1 mg/kg): 321.32 kg·ng·h/mL/mg | Cmax dose normalized ([5]; iv, 1 mg/kg): 643.67 kg·ng/mL/mg | V (terminal) ([5]; iv, 1 mg/kg): 7.61859 L/kg | AUC(t-∞) dose normalized ([5]; po, 5 mg/kg): 93.34 kg·ng·h/mL/mg | Cmax dose normalized ([5]; po, 5 mg/kg): 68.07 kg·ng/mL/mg | AUC(t-∞) dose normalized ([5]; po, 20 mg/kg): 87.49 kg·ng·h/mL/mg | Cmax dose normalized ([5]; po, 20 mg/kg): 75.83 kg·ng/mL/mg | Metabolic Stability T½ [min] mouse [6]: > 60 min | Metabolic Stability 60 min mouse [% remain.] [6]: 74 % remain.

CN1CCC[C@H](N)C(=O)N2C[C@@H](Oc3ccccc3)C[C@H]2COc2cccc(c2)C1=O [Ex. 561, (4S,6S,10S)-10-amino-14-methyl-6-phenoxy-2-oxa-8,14-diazatricyclo[14.3.1.0^4,8]icosa-1(20),16,18-triene-9,15-dione]
half-life at 10 µM ([1]; both sexes): 0.65 h | Metabolic Stability 60 min hum [% remain.] [1]: 42 % remain. | Plasma Stability T½ [min] hum (in vitro [2]): > 240 min | Plasma Stability 240 min hum [% remain.] (in vitro [2]): 99 % remain. | Plasma Stability T½ [min] mouse (in vitro [3]): > 240 min | Plasma Stability 240 min mouse [% remain.] (in vitro [3]): 100 % remain. | Metabolic Stability 60 min (rat) [% remain.] [4]: 53 % remain. | half-life at 10 µM ([4]; read-out: Metabolic Stability T½ [min] (rat)): 56 min | Cmax ([5]; iv, 1 mg/kg): 184 ng/mL | Tmax ([5]; iv, 1 mg/kg): 0.08 h | C0 ([5]; iv, 1 mg/kg): 240 ng/mL | half-life ([5]; iv, 1 mg/kg): 2.11 h | Cmax ([5]; po, 5 mg/kg): 67 ng/mL | Tmax ([5]; po, 5 mg/kg): 0.5 h | bioavailability ([5]; po, 5 mg/kg): 10.9% | half-life ([5]; po, 5 mg/kg): 3 h | Cmax ([5]; po, 20 mg/kg): 248 ng/mL | Tmax ([5]; po, 20 mg/kg): 0.25 h | bioavailability ([5]; po, 20 mg/kg): 16.8% | half-life ([5]; po, 20 mg/kg): 2.71 h | AUC(t-∞) dose normalized ([5]; iv, 1 mg/kg): 219.89 kg·ng·h/mL/mg | Cmax dose normalized ([5]; iv, 1 mg/kg): 183.67 kg·ng/mL/mg | V (terminal) ([5]; iv, 1 mg/kg): 13.8314 L/kg | AUC(t-∞) dose normalized ([5]; po, 5 mg/kg): 24.00 kg·ng·h/mL/mg | Cmax dose normalized ([5]; po, 5 mg/kg): 13.40 kg·ng/mL/mg | AUC(t-∞) dose normalized ([5]; po, 20 mg/kg): 36.88 kg·ng·h/mL/mg | Cmax dose normalized ([5]; po, 20 mg/kg): 12.40 kg·ng/mL/mg | Metabolic Stability T½ [min] mouse [6]: > 60 min | Metabolic Stability 60 min mouse [% remain.] [6]: 79 % remain.
